Measurements reported in PMC6560211, “ApoAI-derived peptide increases glucose tolerance and prevents formation of atherosclerosis in mice” (Diabetologia, 2019).
No end group written: not given here.

Key:
C2C12 myotubes = experiment: Glucose uptake in muscle myotubes; type: cell-based, rat; details: different concentrations of RG54; three independent experiments
Description: C2C12 myoblasts were differentiated to myotubes by switching from growth media to 2% FBS DMEM for 7 days, with the addition of cytosine arabinoside (Sigma, Stockholm, Sweden) from day 3 to 5 to eliminate proliferating cells. Prior to stimulation, cells starved for 2 h in serum-free DMEM were treated as described and glucose uptake measurements were carried out. See ESM Methods for more details.
Fig. 3 RG54 induces skeletal muscle glucose uptake and primes INS-1E cells to increase GSIS. (a) C2C12 skeletal muscle myotubes were incubated in the absence or presence of different concentrations of RG54 or with insulin, followed by glucose uptake measurements. Values are means ± SEM from three independent experiments. *p≤0.05, **p≤0.01, ***p≤0.001 vs control. (b) INS-1E cells were incubated for 2 h in the absence or presence of different concentrations of RG54 in a low-glucose environment (preincubation). Buffer was replaced with one containing low (3.3 mmol/l) or high (20 mmol/l) glucose but no RG54 peptide. Insulin secretion was measured after 1 h glucose challenge. […]
No statistical methods were used to predetermine sample sizes, but sample sizes are similar to those reported in the field. […] Group allocation was blinded for all mouse work when possible (such as collection of blood or tissues, sample quantification and analysis, and atherosclerosis scoring). […]

[1] = Peptide solubility by HPLC; type: physicochemical; details: reconstituted RG54 peptide; assayed using HPLC
Description: Peptide (lyophilised powder) produced by Red Glead (Lund, Sweden) was reconstituted in Milli-Q water and then either used directly or mixed in a 1:1 ratio with 6 mol/l guanidine HCl in 2× PBS to give a monodisperse solution, followed by desalting using a column equilibrated with PBS, pH 7.4, using ÄKTAxpress fast protein LC (GE Healthcare, Uppsala, Sweden). Peptide integrity was analysed using circular dichroism spectroscopy. Peptide solubility was assayed at Red Glead using HPLC. Peptide stability in physiologic buffer or blood plasma (human or mouse) over 2 h was assayed at the Science for Life Laboratory (Uppsala, Sweden). For detailed methods, please refer to the electronic supplementary material (ESM) Methods.
The peptide RG54 was synthesised with natural amino acids and then modified with an acetylation cap on the N-terminus in order to reduce the susceptibility for proteolytic degradation by […] (ESM Fig. 3a). […] Peptide integrity following the denaturation/refolding procedure was confirmed using gel electrophoresis and circular dichroism spectroscopy analyses (ESM Fig. 3d,e) and by peptide stability assays (buffer or plasma) (ESM Fig. 3f).

[2] = rHDL formation, particle size by DLS; details: 1:100 protein:lipid molar ratio, extruded 100 nm MLVs, 4 days (96 h), 24°C
Description: 1,2-dimyristoyl-sn-glycero-3-phosphocholine (DMPC; Avanti Polar Lipids, Alabaster, AL, USA) was formed into 100 nm multilamellar vesicles (MLV) via extrusion using the LiposoFast system (Avestin, Ottawa, ON, Canada) as previously described. MLV were incubated with RG54 or ApoA-I at the indicated ratios for 4 days at 24°C to form rHDL. The resulting particle sizes were measured by dynamic light scattering (DLS) using a Zetasizer APS (Malvern Instruments, Uppsala, Sweden).
The reduced initial rate may be due to a more complex binding pattern of the larger number of RG54 peptides needed per formed particle: four to five RG54 molecules (54 amino acids each) are needed to make up the size of full-length ApoA-I (243 amino acids). A qualitative assessment of particle formation was therefore next used to evaluate and compare the sizes of formed rHDL. The hydrodynamic diameters of lipid–protein complexes formed after extended incubation (96 h) of RG54 or ApoA-I with extruded 100 nm MLVs were estimated using DLS.
ESM Figure 4. Lipid clearance and peptide-lipid complex formation activity of RG54 compared with full-length ApoA-I. […]

Substance: Ac-AEYHAKATEHLSTLSEKAKPALEDLRQGLLPVLESFKVSFLSALEEYTKKLNTQ [RG54]
- glucose uptake (C2C12 myotubes): dose-dependent stimulation
- solubility [1]: > 3000 µg/mL
- lipid-protein complexes formed (DLS frequency plots) [2]: single peaks corresponding to rHDL particles
